The source of these data is PubChem BioAssay (NCI).

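Five compound concentrations were applied to cells in 96-well plates for 48 hours; endpoints were derived by simple linear interpolation of the resulting dose-response curve. TGI: total growth inhibition.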

Among the test systems are SK-OV-3 ovarian; MCF7 breast; SR leukemia; 786-0 renal; SW-620 colon; CCRF-CEM leukemia; HL-60(TB) leukemia; MDA-MB-435; HCT-116 colon; RXF 393 renal; SNB-19 CNS; UACC-257 melanoma; K-562 leukemia.
Common to all, as to assay: NCI-60 cell line screen, 48 h

`CC(C)(C)OC(=O)c1ccc(NCC2=CC(=O)C=CC2=O)cc1`: the TGI in the test on SK-OV-3 ovarian was 41.6 µM; in the test on MCF7 breast, 12.3 µM; with SR leukemia it was > 23.1 µM; in the test with 786-0 renal, 22 µM; in the test with SW-620 colon, 22.6 µM; in the test on CCRF-CEM leukemia, 5.35 µM. For the same molecule, the TGI with HL-60(TB) leukemia amounted to 3.29 µM; in the test on MDA-MB-435 it was 25.9 µM; with HCT-116 colon, 26.2 µM; with RXF 393 renal, 23.6 µM; with SNB-19 CNS, 31.4 µM; in the test on UACC-257 melanoma it was 24.9 µM. In the test on K-562 leukemia, the TGI was > 100 µM.
As for `CC(C)(C)c1cc(OCc2nnc3sc(=S)[nH]n23)c(Cl)cc1OCc1nnc2sc(=S)[nH]n12`, the TGI is > 100 µM in the test on SK-OV-3 ovarian; 31.6 µM in the test on MCF7 breast; 50.8 µM in the test on SR leukemia; 95 µM in the test on 786-0 renal; > 100 µM in the test on SW-620 colon; 37.3 µM in the test on CCRF-CEM leukemia. Further, the TGI in the test with HL-60(TB) leukemia is 55.5 µM; in the test with MDA-MB-435 it was 55.1 µM; with HCT-116 colon it was 50.6 µM; in the test on RXF 393 renal, 69.1 µM; with SNB-19 CNS, > 100 µM; with UACC-257 melanoma, 83.8 µM. Also, the TGI with K-562 leukemia was > 100 µM.
As for `O=C1NC(=O)/C(=C/c2ccc(S(=O)(=O)N/N=C\C(O)C(O)C(O)C(O)CO)cc2)N1` (stereo not drawn), the TGI in the test with SK-OV-3 ovarian, in the test with MCF7 breast, in the test with SR leukemia, in the test with 786-0 renal, with SW-620 colon and with CCRF-CEM leukemia was > 100 µM each time. Also, the TGI with HL-60(TB) leukemia, with MDA-MB-435, in the test on HCT-116 colon, with RXF 393 renal, in the test with SNB-19 CNS and with UACC-257 melanoma was > 100 µM each time. The TGI in the test with K-562 leukemia was > 100 µM.
As to `COc1cc(S(=O)(=O)Nc2ccc(-c3csc(N4C(=O)C(Cl)C4c4ccccc4)n3)cc2)ccc1Cl` (stereo not drawn), the TGI in the test with SK-OV-3 ovarian was > 100 µM; in the test with MCF7 breast it was > 100 µM; in the test on SR leukemia it was > 100 µM; in the test on 786-0 renal, 49 µM; in the test with SW-620 colon, > 100 µM; in the test with CCRF-CEM leukemia, > 100 µM. In addition, the TGI in the test on HL-60(TB) leukemia was > 100 µM; with MDA-MB-435, > 100 µM; in the test with HCT-116 colon it was > 100 µM; with RXF 393 renal, 23.1 µM; in the test on SNB-19 CNS it was > 100 µM; in the test on UACC-257 melanoma, > 100 µM. Further, the TGI with K-562 leukemia was > 100 µM.
With `O=C(O)C1(Cc2ccc3c(c2)CCC3)Cc2ccccc2C1`, the TGI in the test on SK-OV-3 ovarian, in the test with MCF7 breast, in the test with SR leukemia, in the test with 786-0 renal, in the test on SW-620 colon and with CCRF-CEM leukemia was > 100 µM throughout. In addition, the TGI in the test on HL-60(TB) leukemia, in the test on MDA-MB-435, with HCT-116 colon, in the test with RXF 393 renal, in the test with SNB-19 CNS and in the test with UACC-257 melanoma was > 100 µM each time. For the same molecule, the TGI in the test with K-562 leukemia was > 100 µM.
For `CCN(CC)/[N+]([O-])=N/OCOC(C)=O`, the TGI with SK-OV-3 ovarian, in the test with MCF7 breast, in the test with SR leukemia, in the test with 786-0 renal, in the test with SW-620 colon and in the test with CCRF-CEM leukemia was > 100 µM each time. Also, the TGI with HL-60(TB) leukemia, with MDA-MB-435, in the test on HCT-116 colon, in the test with RXF 393 renal, in the test with SNB-19 CNS and in the test on UACC-257 melanoma was > 100 µM throughout. Besides, the TGI in the test on K-562 leukemia is > 100 µM.
In the case of `N#Cc1c(O)cc(=O)n2c1[nH]c1ccccc12`, the TGI in the test with SK-OV-3 ovarian, in the test with MCF7 breast, in the test on SR leukemia, in the test with 786-0 renal, in the test with SW-620 colon and in the test on CCRF-CEM leukemia was > 100 µM in each case. Moreover, the TGI with HL-60(TB) leukemia, with MDA-MB-435, in the test on HCT-116 colon, in the test with RXF 393 renal, in the test on SNB-19 CNS and in the test on UACC-257 melanoma was > 100 µM throughout. Moreover, the TGI in the test with K-562 leukemia is > 100 µM.
For `CCCCCCOc1ccc(C(=O)N(C)O)cc1`, the TGI in the test with SK-OV-3 ovarian was > 97.1 µM; in the test with MCF7 breast it was > 100 µM; in the test with SR leukemia it was 39.6 µM; in the test on 786-0 renal it was 55.7 µM; with SW-620 colon, > 100 µM; in the test with CCRF-CEM leukemia, 23.5 µM. For the same molecule, the TGI in the test with HL-60(TB) leukemia is 33.2 µM; in the test with MDA-MB-435, 98.1 µM; with HCT-116 colon it was > 100 µM; in the test with RXF 393 renal it was 97.6 µM; in the test with SNB-19 CNS, > 100 µM; in the test on UACC-257 melanoma it was > 100 µM. Further, in the test on K-562 leukemia, the TGI is > 78.8 µM.
Regarding `NC(=O)/C=c1/c2ccccc2n2nc3ccccc3c12`, the TGI was 59.3 µM with SK-OV-3 ovarian; > 100 µM with MCF7 breast; 6.16 µM with SR leukemia; 77.4 µM in the test on 786-0 renal; 44.5 µM in the test on SW-620 colon; > 100 µM in the test with CCRF-CEM leukemia. For the same molecule, the TGI in the test with HL-60(TB) leukemia is 7.58 µM; with MDA-MB-435, 35.1 µM; with HCT-116 colon, 21 µM; in the test with RXF 393 renal it was 46.5 µM; in the test on SNB-19 CNS, 49.3 µM; in the test with UACC-257 melanoma it was 41 µM. In the test with K-562 leukemia, this molecule returned a TGI of 53.2 µM.
Consider `C=CC(Br)(CBr)CCC(Br)C(C)(C)Cl` (stereo not drawn), for which the TGI in the test with SK-OV-3 ovarian is 30.1 µM; in the test with MCF7 breast it was 4.89 µM; in the test with SR leukemia, 3.78 µM; in the test with 786-0 renal, 5.64 µM; in the test on SW-620 colon it was 5.67 µM; in the test with CCRF-CEM leukemia, 7.45 µM. The TGI with HL-60(TB) leukemia stood at 2.6 µM; with MDA-MB-435, 5.82 µM; in the test on HCT-116 colon it was 3.4 µM; in the test with RXF 393 renal, 8.86 µM; in the test on SNB-19 CNS, 4.51 µM; in the test with UACC-257 melanoma, 10.6 µM. The molecule also returned a TGI in the test on K-562 leukemia of 5.1 µM.
As for `COc1ccc(N=Nc2c(C)c(C#N)c(=S)n(C3OC(CO)C(O)C(O)C3O)c2C)cc1` (stereo not drawn), the TGI in the test with SK-OV-3 ovarian is > 100 µM; with MCF7 breast, > 100 µM; with SR leukemia, 87.1 µM; in the test with 786-0 renal, > 100 µM; in the test with SW-620 colon, > 100 µM; in the test on CCRF-CEM leukemia it was 89.2 µM. For the same molecule, the TGI with HL-60(TB) leukemia, in the test on MDA-MB-435, in the test with HCT-116 colon, in the test on RXF 393 renal, in the test with SNB-19 CNS and with UACC-257 melanoma was > 100 µM in each case. In the test with K-562 leukemia, the TGI is > 100 µM.
Regarding `N#Cc1c(O)c(N=Nc2ccc(Cl)cc2)c(=O)n2c1[nH]c1ccccc12`, the TGI with SK-OV-3 ovarian, in the test on MCF7 breast, with SR leukemia, with 786-0 renal, in the test with SW-620 colon and in the test on CCRF-CEM leukemia was > 100 µM each time. The TGI in the test with HL-60(TB) leukemia, in the test with MDA-MB-435, with HCT-116 colon, with RXF 393 renal, in the test with SNB-19 CNS and in the test on UACC-257 melanoma was > 100 µM each time. For the same molecule, in the test with K-562 leukemia, the TGI is > 100 µM.
For `O=C(Cc1nc2ncccc2[nH]c1=O)c1c[nH]c2ccccc12`, the TGI in the test with SK-OV-3 ovarian was determined as 29.8 µM; with MCF7 breast, 32.3 µM; in the test on SR leukemia, 96.2 µM; in the test with 786-0 renal it was 40.5 µM; in the test with SW-620 colon, 40.5 µM; with CCRF-CEM leukemia, 40.3 µM. Further, the TGI is > 100 µM with HL-60(TB) leukemia; 30.7 µM in the test on MDA-MB-435; 49 µM in the test with HCT-116 colon; 39.1 µM in the test with RXF 393 renal; 35.7 µM in the test on SNB-19 CNS; 36.1 µM with UACC-257 melanoma. In addition, in the test with K-562 leukemia, the TGI came to 63.2 µM.
With `C=C(C)C(O)C(O)C[C@@H](C)C1CC[C@]23C[C@]12CCC1[C@@]2(C)CCC(OC(C)=O)C(C)(C)C2CC(OC2OC(CO)C(O)C(O)C2O)[C@]13C` (stereo partly drawn), the TGI in the test with SK-OV-3 ovarian is 45.7 µM; in the test with MCF7 breast it was 31 µM; with SR leukemia, 36.3 µM; with 786-0 renal it was 35.1 µM; in the test with SW-620 colon, 30.8 µM; in the test on CCRF-CEM leukemia, 31.2 µM. The TGI with HL-60(TB) leukemia was 36.7 µM; with MDA-MB-435, 31.7 µM; with HCT-116 colon, 29.5 µM; in the test on RXF 393 renal, 29.3 µM; in the test with SNB-19 CNS it was 45.1 µM; in the test with UACC-257 melanoma it was 31.4 µM. In the test with K-562 leukemia, this molecule yielded a TGI of 46.6 µM.
With `COC(=O)c1c[nH]c2c1-c1cc(C(=O)OCc3ccccc3)n(S(=O)(=O)c3ccc(C)cc3)c1C(=O)C2=O`, the TGI with SK-OV-3 ovarian was 3.1 µM; with MCF7 breast, 0.379 µM; with SR leukemia, 3.51 µM; in the test on 786-0 renal it was 1.02 µM; in the test with SW-620 colon, 0.576 µM; in the test on CCRF-CEM leukemia, > 33.3 µM. Moreover, the TGI with HL-60(TB) leukemia was > 100 µM; in the test on MDA-MB-435, 0.135 µM; in the test with HCT-116 colon it was 0.607 µM; with RXF 393 renal, 1.14 µM; in the test on SNB-19 CNS, 0.505 µM; in the test with UACC-257 melanoma it was 0.311 µM. Further, the TGI with K-562 leukemia was > 100 µM.
On to `Nc1c(N2CCOCC2)c(=O)nc2[nH]/c(=C\c3ccccc3)c(=O)n12`, for which the TGI in the test on SK-OV-3 ovarian, in the test on MCF7 breast, in the test on SR leukemia, in the test with 786-0 renal, with SW-620 colon and with CCRF-CEM leukemia was > 100 µM throughout. The TGI in the test with HL-60(TB) leukemia was 57.3 µM; in the test on MDA-MB-435 it was > 100 µM; in the test on HCT-116 colon it was > 100 µM; with RXF 393 renal, > 100 µM; in the test on SNB-19 CNS, > 100 µM; in the test with UACC-257 melanoma, > 100 µM. This molecule had a TGI with K-562 leukemia of 93 µM.
